Assay results as given in US8231888B2, “Isoxazolines for controlling invertebrate pests” (priority 2005, dated 2012).

Key:
Format in all cases: in vivo
[1] = test system: fall armyworm (Spodoptera frugiperda); assay: Test B: control of fall armyworm on corn (maize) plant, foliar spray
Procedure: (§1) Test compounds were formulated using a solution containing 10% acetone, 90% water and 300 ppm X-77™ Spreader Lo-Foam Formula non-ionic surfactant containing alkylarylpolyoxyethylene, free fatty acids, glycols and isopropanol (Loveland Industries, Inc. Greeley, Colo., USA). The formulated compounds were applied in 1 mL of liquid through a SUJ2 atomizer nozzle with 1/8 JJ custom body (Spraying Systems Co. Wheaton, Ill., USA) positioned 1.27 cm (0.5 inches) above the top of each test unit. All experimental compounds in these tests were sprayed at 250 and/or 50 ppm, and the test was replicated three times. After spraying of the formulated test compound, each test unit was allowed to dry for 1 h and then a black, screened cap was placed on top. The test units were held for 6 days in a growth chamber at 25° C. and 70% relative humidity. Plant feeding damage was then visually assessed based on foliage consumed and a pest mortality rating was also counted and calculated for each test unit.
For evaluating control of fall armyworm (Spodoptera frugiperda) the test unit consisted of a small open container with a 4-5-day-old corn (maize) plant inside. This was pre-infested (using a core sampler) with 10-15 1-day-old larvae on a piece of insect diet. Test compounds were formulated and sprayed at 250 and/or 50 ppm as described for Test A and replicated three times. After spraying, the test units were maintained in a growth chamber and then the control efficacy was rated for each test unit as described for Test A.

[2] = test system: western flower thrips (Frankliniella occidentalis); assay: Test D: control of western flower thrips on Soleil bean plant, contact and/or systemic; details: asterisk: observed only at 250 ppm; 6 days, 25° C.
Procedure: as §1
For evaluating control of the western flower thrips (Frankliniella occidentalis) through contact and/or systemic means, the test unit consisted of a small open container with a 5-7 day old Soleil Bean plant inside. Test compounds were formulated and sprayed at 250 and/or 50 ppm, and the test was replicated three times as described for Test A. After spraying, the test units were allowed to dry for 1 hour and then 22-27 adult thrips were added to each unit and then a black, screened cap was placed on top. The test units were held for 6 days at 25° C. and 45-55% relative humidity. A mortality rating was assessed along with a plant damage rating for each test unit.

[3] = test system: diamondback moth (Plutella xylostella); assay: Test A: control of diamondback moth on radish plant, foliar spray; details: 6 days, 25° C.
Excerpt: For evaluating control of diamondback moth (Plutella xylostella) the test unit consisted of a small open container with a 12-14-day-old radish plant inside. This was pre-infested with about 50 neonate larvae that were dispensed into the test unit via corn cob grits using a bazooka inoculator. The larvae moved onto the test plant after being dispensed into the test unit.
as §1

[4] = sprayed at 250 and/or 50 ppm, no asterisk (not limited to 250 ppm)
[5] = asterisk: observed only at 250 ppm

Row | SMILES | control efficacy (20% or less feeding damage or 80% or more mortality) [1, 4] | control efficacy (20% or less feeding damage or 80% or more mortality) [3, 4] | other results
1 | CC(NC(=O)c1ccc(C2=NOC(c3cc(Cl)cc(Cl)c3)(C(F)(F)F)C2)c2ccccc12)c1ccccc1 (mixture of isomers) [Compound 15] | very good to excellent levels of control efficacy | very good to excellent levels of control efficacy | control efficacy (20% or less feeding damage or 80% or more mortality) [2]: very good to excellent levels of control efficacy
2 | CC(NC(=O)c1ccc(C2=NOC(c3cc(Cl)cc(Cl)c3)(C(F)(F)F)C2)c2ccccc12)c1ccc2ccccc2c1 (mixture of isomers) [Compound 27] |  | very good to excellent levels of control efficacy | 
3 | CC(NC(=O)c1ccc(C2=NOC(c3cc(Cl)cc(Cl)c3)(C(F)(F)F)C2)c2ccccc12)c1ccc([N+](=O)[O-])cc1 (mixture of isomers) [Compound 28] | very good to excellent levels of control efficacy | very good to excellent levels of control efficacy | 
4 | COC(=O)C(NC(=O)c1ccc(C2=NOC(c3cc(Cl)cc(Cl)c3)(C(F)(F)F)C2)c2ccccc12)c1ccccc1 (mixture of isomers) [Compound 29] | very good to excellent levels of control efficacy | very good to excellent levels of control efficacy | 
5 | CC(NC(=O)c1ccc(C2=NOC(c3cc(Cl)cc(Cl)c3)(C(F)(F)F)C2)c2ccccc12)c1ccc(Cl)cc1 (mixture of isomers) [Compound 30] | very good to excellent levels of control efficacy | very good to excellent levels of control efficacy | 
6 | CC(NC(=O)c1ccc(C2=NOC(c3cc(Cl)cc(Cl)c3)(C(F)(F)F)C2)c2ccccc12)c1ccc(F)cc1 (mixture of isomers) [Compound 31] | very good to excellent levels of control efficacy | very good to excellent levels of control efficacy | 
7 | O=C(NCc1cccnc1)c1ccc(C2=NOC(c3cc(Cl)cc(Cl)c3)(C(F)(F)F)C2)c2ccccc12 (centres unmarked) [Compound 6] | very good to excellent levels of control efficacy | very good to excellent levels of control efficacy | 
8 | O=C(NCc1ccncc1)c1ccc(C2=NOC(c3cc(Cl)cc(Cl)c3)(C(F)(F)F)C2)c2ccccc12 (centres unmarked) [Compound 7] | very good to excellent levels of control efficacy | very good to excellent levels of control efficacy | 
9 | CCN(C)C(=O)c1ccc(C2=NOC(c3cc(Cl)cc(Cl)c3)(C(F)(F)F)C2)c2ccccc12 (centres unmarked) [Compound 9] | very good to excellent levels of control efficacy | very good to excellent levels of control efficacy | 
10 | CNC(=O)c1ccc(C2=NOC(c3cc(Cl)cc(Cl)c3)(C(F)(F)F)C2)c2ccccc12 (centres unmarked) [Compound 12] | very good to excellent levels of control efficacy | very good to excellent levels of control efficacy | 
11 | Cc1cc(C)cc(C2(C(F)(F)F)CC(c3ccc(C(=O)NCc4ccccn4)c4ccccc34)=NO2)c1 (centres unmarked) [Compound 22] | very good to excellent levels of control efficacy | very good to excellent levels of control efficacy | 
12 | O=C(NCc1ccccn1)c1ccc(C2=NOC(c3ccc(Cl)c(Cl)c3)(C(F)(F)F)C2)c2ccccc12 (centres unmarked) [Compound 23] | very good to excellent levels of control efficacy | very good to excellent levels of control efficacy | 
13 | O=C(NCc1ccccn1)c1ccc(C2=NOC(c3cccc(Cl)c3)(C(F)(F)F)C2)c2ccccc12 (centres unmarked) [Compound 25] | very good to excellent levels of control efficacy |  | 
14 | CCC(C)NC(=O)c1ccc(C2=NOC(c3cc(Cl)cc(Cl)c3)(C(F)(F)F)C2)c2ccccc12 (centres unmarked) [Compound 33] |  |  | control efficacy (20% or less feeding damage or 80% or more mortality) [2]: very good to excellent levels of control efficacy
15 | NC(=O)c1ccc(C2=NOC(c3cc(Cl)cc(Cl)c3)(C(F)(F)F)C2)c2ccccc12 (centres unmarked) [Compound 36] | very good to excellent levels of control efficacy | very good to excellent levels of control efficacy | 
16 | O=C(N[C@H]1CCCc2ccccc21)c1ccc(C2=NOC(c3cc(Cl)cc(Cl)c3)(C(F)(F)F)C2)c2ccccc12 (some centres unmarked) [Compound 38] |  | very good to excellent levels of control efficacy | 
17 | O=C(O)CNC(=O)c1ccc(C2=NOC(c3cc(Cl)cc(Cl)c3)(C(F)(F)F)C2)c2ccccc12 (centres unmarked) [Compound 43] |  | very good to excellent levels of control efficacy | 
18 | CC(=O)NNC(=O)c1ccc(C2=NOC(c3cc(Cl)cc(Cl)c3)(C(F)(F)F)C2)c2ccccc12 (centres unmarked) [Compound 45] |  | very good to excellent levels of control efficacy | control efficacy (20% or less feeding damage or 80% or more mortality) [2]: very good to excellent levels of control efficacy
19 | NCCNC(=O)c1ccc(C2=NOC(c3cc(Cl)cc(Cl)c3)(C(F)(F)F)C2)c2ccccc12 (centres unmarked) [Compound 47] |  | very good to excellent levels of control efficacy | control efficacy (20% or less feeding damage or 80% or more mortality) [2]: very good to excellent levels of control efficacy
20 | COC(=O)[C@H](C)NC(=O)c1ccc(C2=NOC(c3cc(Cl)cc(Cl)c3)(C(F)(F)F)C2)c2ccccc12 (some centres unmarked) [Compound 48] |  | very good to excellent levels of control efficacy | control efficacy (20% or less feeding damage or 80% or more mortality) [2]: very good to excellent levels of control efficacy
21 | NCCCCCCNC(=O)c1ccc(C2=NOC(c3cc(Cl)cc(Cl)c3)(C(F)(F)F)C2)c2ccccc12 (centres unmarked) [Compound 50] |  | very good to excellent levels of control efficacy | 
22 | O=C(NCc1ccccn1)c1ccc(C2=NOC(c3cc(Cl)cc(Cl)c3)(C(F)(F)F)C2)c2cccnc12 (centres unmarked) [Compound 103, 5-[5-(3,5-dichlorophenyl)-4,5-dihydro-5-(trifluoromethyl)-3-isoxazolyl]-N-(2-pyridinylmethyl)-8-quinolinecarboxamide] | very good to excellent levels of control efficacy | very good to excellent levels of control efficacy | 
23 | O=C(NCc1ccccn1)c1ccc(C2=NOC(c3cc(Cl)cc(Cl)c3)(C(F)(F)F)C2)c2cnccc12 (centres unmarked) [Compound 105] |  | very good to excellent levels of control efficacy | 
24 | O=C(NCc1ccccn1)c1ccc(C2=NOC(c3cc(Cl)cc(Cl)c3)(C(F)(F)F)C2)c2ncccc12 (centres unmarked) [Compound 106] |  | very good to excellent levels of control efficacy | control efficacy (20% or less feeding damage or 80% or more mortality) [1, 5]: very good to excellent levels of control efficacy
25 | O=C(NCC(F)(F)F)c1ccc(C2=NOC(c3cc(Cl)cc(Cl)c3)(C(F)(F)F)C2)c2ncccc12 (centres unmarked) [Compound 107] |  |  | control efficacy (20% or less feeding damage or 80% or more mortality) [1, 5]: very good to excellent levels of control efficacy; control efficacy (20% or less feeding damage or 80% or more mortality) [3, 5]: very good to excellent levels of control efficacy
26 | FC(F)(F)C1(c2cc(Cl)cc(Cl)c2)CC(c2ccc(C(=S)NCc3ccccn3)c3cccnc23)=NO1 (centres unmarked) [Compound 108] |  |  | control efficacy (20% or less feeding damage or 80% or more mortality) [3, 5]: very good to excellent levels of control efficacy
27 | FC(F)(F)CNC(=S)c1ccc(C2=NOC(c3cc(Cl)cc(Cl)c3)(C(F)(F)F)C2)c2ncccc12 (centres unmarked) [Compound 109] |  |  | control efficacy (20% or less feeding damage or 80% or more mortality) [3, 5]: very good to excellent levels of control efficacy
28 | O=C(NCC(F)(F)F)c1ccc(C2=NOC(c3ccnc(Cl)c3)(C(F)(F)F)C2)c2ccccc12 (centres unmarked) [Compound 201] | very good to excellent levels of control efficacy | very good to excellent levels of control efficacy | 
29 | O=C(NCc1ccccn1)c1ccc(C2=NOC(c3ccnc(Cl)c3)(C(F)(F)F)C2)c2ccccc12 (centres unmarked) [Compound 202] | very good to excellent levels of control efficacy | very good to excellent levels of control efficacy | 
